Assay results taken from PubChem BioAssay AID1259407 (Chemical Carcinogenesis Research Information System (CCRIS), 2018).
Activity calls are given as the source filed them. No rule for the calls is given here.

System: CCRIS mutagenicity, Ames/micronucleus/aberration tests
Experiment: CCRIS mutagenicity studies
[1] = Test System: AMES SALMONELLA TYPHIMURIUM, Strain/Indicator: TA98, Metabolic Activation: HAMSTER, LIVER, S-9, AROCLOR 1254 (10%), Method: PREINCUBATION
[2] = Test System: AMES SALMONELLA TYPHIMURIUM, Strain/Indicator: TA98, Metabolic Activation: RAT, LIVER, S-9, AROCLOR 1254 (10%), Method: PREINCUBATION
[3] = Test System: AMES SALMONELLA TYPHIMURIUM, Strain/Indicator: TA100, Metabolic Activation: HAMSTER, LIVER, S-9, AROCLOR 1254 (10%), Method: PREINCUBATION
[4] = Test System: AMES SALMONELLA TYPHIMURIUM, Strain/Indicator: TA100, Metabolic Activation: RAT, LIVER, S-9, AROCLOR 1254 (10%), Method: PREINCUBATION
[5] = Test System: AMES SALMONELLA TYPHIMURIUM, Strain/Indicator: TA1535, Metabolic Activation: HAMSTER, LIVER, S-9, AROCLOR 1254 (10%), Method: PREINCUBATION
[6] = Test System: AMES SALMONELLA TYPHIMURIUM, Strain/Indicator: TA1535, Metabolic Activation: NONE, Method: PREINCUBATION
[7] = Test System: AMES SALMONELLA TYPHIMURIUM, Strain/Indicator: TA1535, Metabolic Activation: RAT, LIVER, S-9, AROCLOR 1254 (10%), Method: PREINCUBATION

Question: Which results are given for `O=C(O)c1ccc([N+](=O)[O-])cc1`?
Answer: mutagenic call [1]: inactive; negative; mutagenic call (Test System: AMES SALMONELLA TYPHIMURIUM, Strain/Indicator: TA98, Metabolic Activation: NONE, Method: STANDARD PLATE): active; positive; mutagenic call [2]: inactive; negative; mutagenic call (Test System: AMES SALMONELLA TYPHIMURIUM, Strain/Indicator: TA98, Metabolic Activation: RAT, LIVER, S-9, KANECHLOR 500, Method: PREINCUBATION): inactive; negative; mutagenic call [3]: active; positive; mutagenic call (Test System: AMES SALMONELLA TYPHIMURIUM, Strain/Indicator: TA100, Metabolic Activation: HAMSTER, LIVER, S-9, AROCLOR 1254, FLAVIN MONONUCLEOTIDE, Method: PREINCUBATION): active; positive; mutagenic call (Test System: AMES SALMONELLA TYPHIMURIUM, Strain/Indicator: TA100, Metabolic Activation: HAMSTER, LIVER, S-9, AROCLOR 1254, Method: PREINCUBATION): active; positive; mutagenic call [4]: active; positive; mutagenic call (Test System: AMES SALMONELLA TYPHIMURIUM, Strain/Indicator: TA100, Metabolic Activation: RAT, LIVER, S-9, AROCLOR 1254, FLAVIN MONONUCLEOTIDE, Method: PREINCUBATION): active; positive; mutagenic call (Test System: AMES SALMONELLA TYPHIMURIUM, Strain/Indicator: TA100, Metabolic Activation: RAT, LIVER, S-9, AROCLOR 1254, Method: STANDARD PLATE): inactive; negative; mutagenic call (Test System: AMES SALMONELLA TYPHIMURIUM, Strain/Indicator: TA100, Metabolic Activation: RAT, LIVER, S-9, KANECHLOR 500, Method: PREINCUBATION): active; positive; mutagenic call [5]: inactive; negative; mutagenic call [6]: inactive; negative; mutagenic call [7]: inactive; negative; mutagenic call (Test System: AMES SALMONELLA TYPHIMURIUM, Strain/Indicator: TA1537, Metabolic Activation: HAMSTER, LIVER, S-9, AROCLOR 1254 (10%), Method: PREINCUBATION): inactive; negative; mutagenic call (Test System: AMES SALMONELLA TYPHIMURIUM, Strain/Indicator: TA1537, Metabolic Activation: NONE, Method: PREINCUBATION): inactive; negative; mutagenic call (Test System: AMES SALMONELLA TYPHIMURIUM, Strain/Indicator: TA1537, Metabolic Activation: RAT, LIVER, S-9, AROCLOR 1254 (10%), Method: PREINCUBATION): inactive; negative; mutagenic call (Test System: AMES SALMONELLA TYPHIMURIUM, Strain/Indicator: TA1538, Metabolic Activation: NONE, Method: PREINCUBATION): active; positive

Question: What does the source list for `NC(=O)N(CCBr)N=O`?
Answer: mutagenic call (Test System: E. COLI B, Strain/Indicator: H/R30R, Metabolic Activation: NONE): active; positive; mutagenic call (Test System: E. COLI B, Strain/Indicator: HS30R, Metabolic Activation: NONE): active; positive

Question: Which mutagenic call (Test System: AMES SALMONELLA TYPHIMURIUM, Strain/Indicator: TA97, Metabolic Activation: HAMSTER, LIVER, S-9, AROCLOR 1254 (10%), Method: PREINCUBATION) does the source give for `CC(O)C#N` (stereo not drawn) here?
Answer: inactive; negative

Question: And the mutagenic call (Test System: AMES SALMONELLA TYPHIMURIUM, Strain/Indicator: TA97, Metabolic Activation: HAMSTER, LIVER, S-9, AROCLOR 1254 (30%), Method: PREINCUBATION)?
Answer: inactive; negative

Question: What about the mutagenic call (Test System: AMES SALMONELLA TYPHIMURIUM, Strain/Indicator: TA97, Metabolic Activation: NONE, Method: PREINCUBATION) of the same molecule?
Answer: inactive; negative

Question: And the mutagenic call (Test System: AMES SALMONELLA TYPHIMURIUM, Strain/Indicator: TA97, Metabolic Activation: RAT, LIVER, S-9, AROCLOR 1254 (5%), Method: PREINCUBATION)?
Answer: inactive; negative

Question: And the mutagenic call (Test System: AMES SALMONELLA TYPHIMURIUM, Strain/Indicator: TA97, Metabolic Activation: RAT, LIVER, S-9, AROCLOR 1254 (10%), Method: PREINCUBATION)?
Answer: inactive; negative

Question: And the mutagenic call (Test System: AMES SALMONELLA TYPHIMURIUM, Strain/Indicator: TA97, Metabolic Activation: RAT, LIVER, S-9, AROCLOR 1254 (30%), Method: PREINCUBATION)?
Answer: inactive; negative

Question: And the mutagenic call [1]?
Answer: inactive; negative

Question: And the mutagenic call (Test System: AMES SALMONELLA TYPHIMURIUM, Strain/Indicator: TA98, Metabolic Activation: HAMSTER, LIVER, S-9, AROCLOR 1254 (30%), Method: PREINCUBATION)?
Answer: inactive; negative

Question: What about the mutagenic call (Test System: AMES SALMONELLA TYPHIMURIUM, Strain/Indicator: TA98, Metabolic Activation: NONE, Method: PREINCUBATION) of the same molecule?
Answer: inactive; negative

Question: What about the mutagenic call [2] of the same molecule?
Answer: inactive; negative

Question: What about the mutagenic call (Test System: AMES SALMONELLA TYPHIMURIUM, Strain/Indicator: TA98, Metabolic Activation: RAT, LIVER, S-9, AROCLOR 1254 (30%), Method: PREINCUBATION) of the same molecule?
Answer: inactive; negative

Question: What about the mutagenic call [3] of the same molecule?
Answer: inactive; negative

Question: What about the mutagenic call (Test System: AMES SALMONELLA TYPHIMURIUM, Strain/Indicator: TA100, Metabolic Activation: HAMSTER, LIVER, S-9, AROCLOR 1254 (30%), Method: PREINCUBATION) of the same molecule?
Answer: inactive; negative

Question: And the mutagenic call (Test System: AMES SALMONELLA TYPHIMURIUM, Strain/Indicator: TA100, Metabolic Activation: NONE, Method: PREINCUBATION)?
Answer: inactive; negative

Question: And the mutagenic call (Test System: AMES SALMONELLA TYPHIMURIUM, Strain/Indicator: TA100, Metabolic Activation: RAT, LIVER, S-9, AROCLOR 1254 (5 OR 30%), Method: PREINCUBATION)?
Answer: inactive; negative

Question: What about the mutagenic call [4] of the same molecule?
Answer: inactive; negative

Question: And the mutagenic call [5]?
Answer: inactive; negative

Question: What about the mutagenic call (Test System: AMES SALMONELLA TYPHIMURIUM, Strain/Indicator: TA1535, Metabolic Activation: HAMSTER, LIVER, S-9, AROCLOR 1254 (30%), Method: PREINCUBATION) of the same molecule?
Answer: inactive; negative

Question: And the mutagenic call [6]?
Answer: inactive; negative

Question: What about the mutagenic call [7] of the same molecule?
Answer: inactive; negative

Question: And the mutagenic call (Test System: AMES SALMONELLA TYPHIMURIUM, Strain/Indicator: TA1535, Metabolic Activation: RAT, LIVER, S-9, AROCLOR 1254 (30%), Method: PREINCUBATION)?
Answer: inactive; negative

Question: What about the mutagenic call (Test System: AMES SALMONELLA TYPHIMURIUM, Strain/Indicator: TA1537, Metabolic Activation: HAMSTER, LIVER, S-9, AROCLOR 1254 (30%), Method: PREINCUBATION) of the same molecule?
Answer: inactive; negative

Question: And the mutagenic call (Test System: AMES SALMONELLA TYPHIMURIUM, Strain/Indicator: TA1537, Metabolic Activation: RAT, LIVER, S-9, AROCLOR 1254 (30%), Method: PREINCUBATION)?
Answer: inactive; negative
